One data set deals with E. coli. The data set can be described thus: in vitro cytotoxicity screen of drugs co-incubated with E. coli (tumour cell survival, MTS). The data set is classed as cell-based, E. coli Nissle 1917. Particulars: drug co-incubated with E. coli, bacteria removed, filtrate applied to tumour cells; change relative to reference cytotoxic effect (drug without bacteria). On the procedure: (§1) 1. Bacteria and Drug are mixed in DMEM medium, and co-incubated for 3 h at 37° C. 2. The drug is separated from bacteria using centrifugation and filtration. 3. The filter sterilised DMEM containing the transformed drug is applied to tumour cells in a 96 well plate. 4. Tumour cell viability is evaluated via the MTS assay for end point measurements.
Bioluminescent E. coli was described by us previously and cultured in the presence of […] erythromycin. Listeria welshimeri Serovar 6B SLCC5334 was purchased from ECACC and cultivated at 37° C. in Brain Heart Infusion (BHI) medium. B. breve UCC2003 and Lactococcus lactis (UCC Culture Collection) was routinely grown at 37° C. in reinforced clostridial medium and M17 medium respectively (Oxoid, Basingstoke, UK). All lactobacilli strains were a kind gift of Dr. Cormac Gahan, UCC School of microbiology, and were grown in lactobacillus MRS broth (Beckton Dickinson). The E. coli nitroreductase deletion mutants and parent strains were kindly provided by Dr. Antonio Valle and grown in LB broth/agar with appropriate antibiotics. The strain Δ+A was created by transforming AB502 (streptomycin, kanamycin sensitive derivative of parent strain AB1157) with the plasmid pNZ44 (chloramphenicol resistance) carrying the gene nfsA. The strain Δ+B was created by transforming AB502 with the plasmid pTrc99A (ampicillin resistance) containing the gene nfsB (see below).
Microtitre plates (96-well) were pre-seeded with 4000 cells/well in appropriate medium for each cell line and allowed to attach overnight. The next day, bacteria were cultured to log-phase or stationery phase (Gram-positive) resuspended in PBS and added to 2 mls of DMEM to an OD600mn of 0.1-0.2 for E. coli 0.05 for Lactococcus lactis, and 0.3-0.4 for the rest of the Grand-positives. Each strain was exposed for 2-3 h to drug in a tissue culture incubator. Bacteria were separated from the drug by centrifugation and filter sterilisation using 0.2 μm pore filters (Starsted) after which 200 μl of filtrate was transferred to each well. […] Cytotoxicity was quantified using an MTS staining with the Cell Titre 96 AQueous One solution Cell Proliferation Assay (Promega). The plates were measured and analysed in a Spectra max M2 (Molecular devices) spectrophotometer at 490 nm.

For another data set, the system named is L. welshimeri. The data set can be described thus: in vitro cytotoxicity screen of drugs co-incubated with L. welshimeri (tumour cell survival, MTS). The data set is classed as cell-based, Listeria welshimeri Serovar 6B SLCC5334. To be noted: drug co-incubated with L. welshimeri, bacteria removed, filtrate applied to tumour cells; change relative to reference cytotoxic effect (drug without bacteria). As for the experimental part: as §1
Bioluminescent E. coli was described by us previously and cultured in the presence of […] erythromycin. Listeria welshimeri Serovar 6B SLCC5334 was purchased from ECACC and cultivated at 37° C. in Brain Heart Infusion (BHI) medium. B. breve UCC2003 and Lactococcus lactis (UCC Culture Collection) was routinely grown at 37° C. in reinforced clostridial medium and M17 medium respectively (Oxoid, Basingstoke, UK). All lactobacilli strains were a kind gift of Dr. Cormac Gahan, UCC School of microbiology, and were grown in lactobacillus MRS broth (Beckton Dickinson). […]
Microtitre plates (96-well) were pre-seeded with 4000 cells/well in appropriate medium for each cell line and allowed to attach overnight. […] Cytotoxicity was quantified using an MTS staining with the Cell Titre 96 AQueous One solution Cell Proliferation Assay (Promega). The plates were measured and analysed in a Spectra max M2 (Molecular devices) spectrophotometer at 490 nm.

The test system of the next data set is CT26 tumours. Briefly: Subcutaneous flank CT26 tumours in Balb/c mice, bacteria i.t. plus drug i.p., survival. The data set is classed as in vivo. On the procedure: Subcutaneous flank CT26 tumours growing in Balb/c mice were injected i.t with bacteria or PBS vehicle alone. Gemcitabine (60 mg/kg) was injected i.p. five times at three day intervals. FIG. 3A) Tumour volume (%) relative to the first day of gemcitabine injection (day 0) is shown. *P<0.03, **P=0.002 for gemcitabine alone versus gemcitabine+bacteria. […] Data are expressed as mean±SEM of 4 to 8 individual mice per group.
Subcutaneous flank CT26 tumours growing in Balb/c mice were injected i.t with bacteria or PBS vehicle alone. CB1954 (20 mg/kg) was injected i.p. for the duration of the experiment at 3 day intervals. FIG. 4A) Tumour volume (%) relative to the first day of CB1954 injection (day 0) is shown. […] P=0.0374). Data are expressed as mean±SEM of 3-5 individual mice per group.
FIGS. 12A-12D: Tumour therapy via in vivo activation of prodrugs. BALB/c mice bearing subcutaneous CT26 flank tumours colonised by E. coli Nissle 1917 received IP injections of CB1954+PBS, 5-FC+PBS, CB1954+5-FC or PBS three times per week. Tumours were monitored for changes in volume and luminescence (where applicable) from live bacteria on each treatment day. FIG. 12A) The change in bacterial luminescence (relative to day 0) from tumour colonising luminescent E. coli is shown. […] FIG. 12B) Changes in CT26 tumour volume were monitored until the first death in the group determined by a predefined endpoint. FIG. 12C-12D) Survival plot of each group starting from the first day of bacteria/drug administration.
Animals and tumour induction: 6-8 week old female BALB/c mice weighing approximately 18-20 g were kept as previously described. For tumour induction, a 200 μl suspension of 2×10^5 CT26 cells in serum free Dulbecco's Modified Eagle's Medium (DMEM) culture medium were injected subcutaneously into the flank of BALB/c mice. The viability of inoculated cells was determined using the Nucleocounter system (ChemoMetec). Tumour growth was monitored three times per week by caliper measurement and mice were randomly assigned to groups when the tumours reached approximately 100 mm^3 in volume. Mice were culled once tumours reached 1.5×1.5 cm in size (predetermined endpoint).
Bacterial administration to mice: Bacteria were grown overnight in LB medium and in a shaking incubator at 37° C. These bacteria were used to inoculate fresh growth medium and allowed to grow until reaching OD600 0.6. […]
Statistical analysis For biological in vitro and in vivo assays, two-sided, paired student's t test with 95% confidence or Mann Whitney U test were employed to investigate statistical differences, using GraphPad Prism@5.0 or Microsoft Excel 12. […] Statistical significance of survival between groups in murine experiments was determined using the Log-rank (Mantel-Cox) Test. […]

`Nc1nc(Cl)nc2c1ncn2[C@H]1C[C@H](O)[C@@H](CO)O1` [Cladribine]: the “Cytotoxicity E. coli” value in the data set on E. coli was “reduced cytotoxic effect and Down”.
On to `CC(=O)[C@]1(O)Cc2c(O)c3c(c(O)c2[C@@H](O[C@H]2C[C@H](N)[C@H](O)[C@H](C)O2)C1)C(=O)c1ccccc1C3=O` [Idarubicin], for which the “Cytotoxicity E. coli” value in the data set on E. coli is on record as “Down”.
Same read-out and setting: under `COc1cc([C@@H]2c3cc4c(cc3[C@@H](O[C@@H]3O[C@@H]5CO[C@@H](C)O[C@H]5[C@H](O)[C@H]3O)[C@H]3COC(=O)[C@H]23)OCO4)cc(OC)c1OP(=O)(O)O` [Etoposide phosphate] stands “Down”; under `COc1cccc2c1C(=O)c1c(O)c3c(c(O)c1C2=O)C[C@@](O)(C(=O)CO)C[C@@H]3O[C@H]1C[C@H](N)[C@H](O)[C@H](C)O1` [Doxorubicin], “Down”; under `OC[C@H]1O[C@@H](n2cnc3c(S)ncnc32)C[C@@H]1O` [6-Mercaptopurine-2′-deoxyriboside], “Up”.
Turning to `C[N+](C)([O-])CCNc1ccc(NCC[N+](C)(C)[O-])c2c1C(=O)c1c(O)ccc(O)c1C2=O` [AQ4N], in the data set with E. coli, the “Cytotoxicity E. coli” value was “Up”.
With `Nc1nc(F)nc2c1ncn2[C@@H]1O[C@H](COP(=O)(O)O)[C@@H](O)[C@@H]1O` [Fludarabine de phosphate], in the data set with E. coli, the “Cytotoxicity E. coli” value is on record as “Up”. For the same compound, the “Cytotoxicity L. welshimeri” value in the data set with L. welshimeri is listed as “Up”.
In the case of `Nc1nc(=O)[nH]cc1F` [5-fluorocytosine], the “Cytotoxicity E. coli” value in the data set on E. coli is “Up”.
The same measure, in the same setting: as for `Nc1ncnc2c1ncn2[C@@H]1O[C@H](CO)[C@@H](O)[C@@H]1O` [Vidarabine], the entry is “Down”; as for `CC1=CC(=O)c2ccccc2C1=O` [Menadione], “Down”.
`Nc1ccn([C@@H]2O[C@H](CO)[C@@H](O)C2(F)F)c(=O)n1` [Gemcitabine]: in the data set with E. coli, the “Cytotoxicity E. coli” value is given as “Down”. The “median survival post Day 0” value in the data set on CT26 tumours (gemcitabine alone group (PBS i.t.), 60 mg/kg i.p. five times at three day intervals) is given as 28 days; in the data set on CT26 tumours (gemcitabine+bacteria group, E. coli i.t., gemcitabine 60 mg/kg i.p. five times at three day intervals, P=0.008 vs gemcitabine alone), 17 days.
Consider `O=c1[nH]c(=O)n(C2CCCO2)cc1F` (stereo not drawn) [Tegafur], for which, in the data set on E. coli, the “Cytotoxicity E. coli” value was “Up”.
In the case of `O=C1c2c(O)ccc(O)c2C(=O)c2c(NCCNCCO)ccc(NCCNCCO)c21` [Mitoxantrone], the “Cytotoxicity E. coli” value with E. coli was “Down”.
Same read-out and setting: under `COc1cccc2c1C(=O)c1c(O)c3c(c(O)c1C2=O)C[C@@](O)(C(C)=O)C[C@@H]3O[C@H]1C[C@H](N)[C@H](O)[C@H](C)O1` [Daunorubicin] stands “Down”.
The same measure, in the same setting: under `CC1(C)CCC2=C(O1)c1ccccc1C(=O)C2=O` [B-Lapachone] stands “Down”.
For the compound `NC(=O)c1cc(N2CC2)c([N+](=O)[O-])cc1[N+](=O)[O-]` [CB1954], the “Cytotoxicity E. coli” value in the data set on E. coli is recorded as “Up”. The “median survival post Day 0” value with CT26 tumours (CB1954+bacteria group, E. coli i.t., CB1954 20 mg/kg i.p. at 3 day intervals, P=0.0374 vs CB1954 alone) was determined as 26 days; in the data set on CT26 tumours (CB1954 alone group (PBS i.t.), 20 mg/kg i.p. at 3 day intervals), 8 days.
